Results as given in patent US12578343B2, “Selective ACKR3 modulators and uses thereof” (Luxembourg Institute of Health (LIH), priority 2019, dated 2026).

Target: KOR (Homo sapiens, UniProt P41145)
Assay: Receptor cell surface level of KOR by HiBiT technology
Format: cell-based
Parameters: expressed in transfected cells; host or cells: U87 cells, transient, PEI
Conditions: bafilomycin A1 1.5 μM, 180-minute stimulation
Description: 1.14 Monitoring of Opioid Peptide-Induced Changes in Receptor Cell Surface Levels
Determination of receptor surface expression level by NanoLuc complementation assay was performed using the Nano-Glo HiBiT extracellular detection system (Promega) according to manufacturer's protocol. […] Cells were then incubated with HiBiT extracellular reagent, consisting of Nanoluciferase extracellular substrate and LgBiT protein in HiBiT buffer. Light emission from complementation of LgBiT protein with remaining surface receptor-fused HiBiT was determined on a Mithras LB940 plate reader (Berthold Technologies). Signal was normalised to the measurement recorded at t=1 min. Noteworthy the impact of nociceptin and derivatives could not be determined in this assay due to significant LgBiT protein cross-complementation by nociceptin. Where indicated, cells were treated with bafilomycin A1 (1.5 μM in 0.15% DMSO) (Santa Cruz Biotechnology) or 0.15% DMSO for 45 minutes prior ligand stimulation and during ligand stimulation (180 minutes).

Sequence of KOR (P41145 whole entry): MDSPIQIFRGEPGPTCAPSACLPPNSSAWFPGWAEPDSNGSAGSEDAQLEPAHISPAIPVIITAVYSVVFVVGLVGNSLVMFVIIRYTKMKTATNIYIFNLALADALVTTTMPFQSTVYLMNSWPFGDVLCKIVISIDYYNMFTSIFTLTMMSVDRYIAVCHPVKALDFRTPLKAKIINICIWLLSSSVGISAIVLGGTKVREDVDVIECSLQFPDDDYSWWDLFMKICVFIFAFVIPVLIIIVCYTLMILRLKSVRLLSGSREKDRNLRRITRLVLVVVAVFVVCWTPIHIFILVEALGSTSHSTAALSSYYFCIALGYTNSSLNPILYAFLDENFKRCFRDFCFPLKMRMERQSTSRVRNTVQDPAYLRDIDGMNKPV

CO/C1=C\C(C)=C\[C@@H](C)[C@@H](O)[C@@H](C)C/C(C)=C/C=C/[C@H](OC)[C@@H]([C@@H](C)[C@@H](O)[C@H](C)[C@@]2(O)C[C@@H](O)[C@H](C)[C@@H](C(C)C)O2)OC1=O [bafilomycin A1]
surface levels of KOR following stimulation with opioid peptides: no effect on surface levels of KOR
